Results from patent US20250326771A1, “PIPERAZINE DERIVATIVES USEFUL IN HIV THERAPY” (VIIV HEALTHCARE COMPANY, priority 2022, published 2025).
Like-named read-outs stand apart in the source and are kept apart here.

What was measured:
XIAP-BIR2 = XIAP-BIR2 (Homo sapiens (Human), UniProt P98170); test: BIR binding assay (FRET competition), XIAP BIR2
Summary of the method: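 Competitive TR-FRET used His-tagged XIAP-BIR2 (200 nM) and 200 nM AlexaFluor647-labelled AVPIAQKSE SMAC peptide in HEPES buffer pH 7.4 with CHAPS, glycerol and DTT, incubated 60 min before 30 min with 2 nM Eu-W1024. The 615/665 nm ratio from a 15-point, 3-fold series was fit with a four-parameter model for IC50/pIC50.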

cIAP2-BIR3 = cIAP2-BIR3 (Homo sapiens (Human), UniProt Q13489); test: BIR binding assay (FRET competition), cIAP2 BIR3; details: for cIAP2 BIR3 vs BIR2 separation window: fold separation (FS) for cIAP2
[1] = test system: Jurkat HIV-luciferase clones; test: Jurkat latency reversal assay; type: cell-based; details: Homo sapiens, 48 h; Jurkat latency reversal assay potency; read-out: Jurkat pEC50 (converted)
Summary of the method: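 Three pooled Jurkat reporter clones, each with one or two integrated HIV-luciferase proviruses, 5,000 cells/well; duplicate 14-point titrations starting at 10 μM; 48 h, 37° C, then Steady-Glo luminescence; four-parameter logistic analysis yields EC50 and percent maximal activation against DMSO vehicle.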

cIAP2-BIR2 = cIAP2-BIR2 (Homo sapiens (Human), UniProt Q13489); test: BIR binding assay (FRET competition), cIAP2 BIR2
Summary of the method: (§1)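 615/665 nm FRET ratio. Compound, His-domain and 200 nM AF647-SMAC peptide incubated 60 min, then 2 nM Eu-W1024 for 30 min. Domains: cIAP1-BIR3 50 nM; XIAP-BIR3 100 nM; cIAP1-BIR2, cIAP2-BIR2 325 nM each. 15-pt 3-fold series; variable-slope IC50.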

XIAP-BIR3 = XIAP-BIR3 (Homo sapiens (Human), UniProt P98170); test: BIR binding assay (FRET competition), XIAP BIR3; details: for XIAP BIR3 vs BIR2 separation window: fold separation (FS) for XIAP
Summary of the method: as §1

cIAP1-BIR3 = cIAP1-BIR3 (Homo sapiens (Human), UniProt Q13490); test: BIR binding assay (FRET competition), cIAP1 BIR3; details: for cIAP1 BIR3 vs BIR2 separation window: fold separation (FS) for cIAP1
Summary of the method: as §1

cIAP1-BIR2 = cIAP1-BIR2 (Homo sapiens (Human), UniProt Q13490); test: BIR binding assay (FRET competition), cIAP1 BIR2
Summary of the method: as §1

[2] = FRET competition, read-out: XIAP BIR2 (pIC50) (converted)

Chain of cIAP1-BIR2 (Q13490 173-257): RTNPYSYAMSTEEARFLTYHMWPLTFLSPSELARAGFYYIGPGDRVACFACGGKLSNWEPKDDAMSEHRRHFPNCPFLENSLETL
Chain of XIAP-BIR2 (P98170 124-240): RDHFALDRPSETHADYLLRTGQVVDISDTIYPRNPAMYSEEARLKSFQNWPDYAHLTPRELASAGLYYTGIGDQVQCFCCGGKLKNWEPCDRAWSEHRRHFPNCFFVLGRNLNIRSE
Chain of cIAP2-BIR3 (Q13489 238-349): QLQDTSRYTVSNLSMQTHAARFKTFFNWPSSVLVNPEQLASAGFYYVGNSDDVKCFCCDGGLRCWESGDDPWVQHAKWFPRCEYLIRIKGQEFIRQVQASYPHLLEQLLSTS
Chain of cIAP2-BIR2 (Q13489 158-242): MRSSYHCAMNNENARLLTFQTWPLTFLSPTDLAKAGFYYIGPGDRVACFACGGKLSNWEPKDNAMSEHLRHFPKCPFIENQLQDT
Chain of XIAP-BIR3 (P98170 241-356): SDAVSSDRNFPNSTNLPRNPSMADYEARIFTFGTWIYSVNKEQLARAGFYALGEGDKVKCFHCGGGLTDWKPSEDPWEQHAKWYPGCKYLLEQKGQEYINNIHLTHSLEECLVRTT
Chain of cIAP1-BIR3 (Q13490 253-363): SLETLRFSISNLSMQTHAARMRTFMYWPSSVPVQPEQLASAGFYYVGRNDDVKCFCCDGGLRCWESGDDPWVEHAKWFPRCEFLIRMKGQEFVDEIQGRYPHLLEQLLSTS

Row | SMILES | IC50 (XIAP-BIR2; [2]) [nM] | IC50 (cIAP2-BIR3) [nM] | cIAP2 BIR3 vs BIR2 separation window (cIAP2-BIR3) | EC50 [1] [nM] | IC50 (cIAP2-BIR2) [nM] | IC50 (XIAP-BIR3) [nM] | XIAP BIR3 vs BIR2 separation window (XIAP-BIR3) | IC50 (cIAP1-BIR3) [nM] | cIAP1 BIR3 vs BIR2 separation window (cIAP1-BIR3) | IC50 (cIAP1-BIR2) [nM] | IC50 (XIAP-BIR2; FRET competition binding, read-out: XIAP BIR2 (pIC50) (converted)) [nM] | IC50 (XIAP-BIR2) [nM]
1 | C[C@@H]1CN(CC(=O)N2CC(C)(C)c3[nH]c(=O)c(Cc4ccc(F)cc4C#N)cc32)[C@@H](CN2CCO[C@H](C(=O)NCc3ccc(CNC(=O)[C@@H]4CN(C[C@H]5CN[C@H](C)CN5CC(=O)N5CC(C)(C)c6[nH]c(=O)c(Cc7ccc(F)cc7C#N)cc65)CCO4)cc3)C2)CN1 [Compound 179, (2S,2′S)-N,N′-(1,4-phenylenebis(methylene)) bis(4-(((2R,5R)-1-(2-(6-(2-cyano-4-fluorobenzyl)-3,3-dimethyl-5-oxo-2,3,4,5-tetrahydro-1H-pyrrolo[3,2-b]pyridin-1-yl)-2-oxoethyl)-5-methylpiperazin-2-yl)methyl)morpholine-2-carboxamide)] | 10000 to 51300 | 15.8 to 31.6 | +++ (10,000>FS>1,000) | 12.6 to 63.1 | 1000 to 3160 | 31.6 to 501 | +++ (10,000>FS>1,000) | 15.8 to 31.6 | ++ (1,000>FS>100) | 1000 to 3160 |  | 
2 | C[C@@H]1CN(CC(=O)N2CC(C)(C)c3[nH]c(=O)c(Cc4ccc(F)cc4)cc32)[C@@H](CN2CCN(CCc3cn(CCCC(=O)N4CCN(C[C@H]5CN[C@H](C)CN5CC(=O)N5CC(C)(C)c6[nH]c(=O)c(Cc7ccc(F)cc7)cc65)[C@H](C)C4)nn3)C[C@H]2C)CN1 [Compound 157] | 10000 to 51300 | 7.94 to 15.8 | ++ (1,000>FS>100) | 63.1 to 316 | 22.4 to 1000 | 15.8 to 31.6 | ++++ (FS>10,000) | 7.94 to 15.8 | ++ (1,000>FS>100) | 1000 to 3160 |  | 
3 | C[C@@H]1CN(CC(=O)N2CC(C)(C)c3[nH]c(=O)c(Cc4ccc(F)cc4)cc32)[C@@H](CN2CCC[C@@H](NC(=O)Cc3ccc(CC(=O)N[C@@H]4CCCN(C[C@H]5CN[C@H](C)CN5CC(=O)N5CC(C)(C)c6[nH]c(=O)c(Cc7ccc(F)cc7)cc65)C4)cc3)C2)CN1 [Example 48, 2,2′-(1,4-phenylene)bis(N-((R)-1-(((2R,5R)-1-(2-(6-(4-fluorobenzyl)-3,3-dimethyl-5-oxo-2,3,4,5-tetrahydro-1H-pyrrolo[3,2-b]pyridin-1-yl)-2-oxoethyl)-5-methylpiperazin-2-yl)methyl)piperidin-3-yl)acetamide)] |  | 15.8 to 31.6 | ++++ (FS>10,000) | 316 to 3310 | 10000 to 51300 | 15.8 to 31.6 | ++++ (FS>10,000) | 15.8 to 31.6 | +++ (10,000>FS>1,000) | 10000 to 51300 | 10000 to 51300 | 
4 | C[C@@H]1CN(CC(=O)N2CC(C)(C)c3[nH]c(=O)c(Cc4ccc(F)cc4)cc32)[C@@H](CN2CCO[C@H](COc3cccc(OC[C@@H]4CN(C[C@H]5CN[C@H](C)CN5CC(=O)N5CC(C)(C)c6[nH]c(=O)c(Cc7ccc(F)cc7)cc65)CCO4)c3)C2)CN1 [Example 69, 1,1′-(2,2′-((3R,3′R,6R,6′R)-(((2S,2'S)-((1,3-phenylenebis(oxy))bis(methylene))bis(morpholine-2,4-diyl))bis(methylene))bis(3-methylpiperazine-6,1-diyl))bis(acetyl))bis(6-(4-fluorobenzyl)-3,3-dimethyl-1,2,3,4-tetrahydro-5H-pyrrolo[3,2-b]pyridin-5-one)] |  | 7.94 to 15.8 |  | 0.49 to 12.6 | 1000 to 3160 | 15.8 to 31.6 |  | 7.94 to 15.8 |  | 1000 to 3160 |  | 10000 to 51300
